# Reference: patent publication US20260216347A1, “Substituted Imidazo-Based Compounds as Ligand Directed Degraders of IRAK3” (Celgene Corporation, priority 2022, published 2026)
# Molecular target: T1, IRAK3-ePL (Homo sapiens, UniProt Q9Y616)
# T1 construct: expressed in transfected cells; host or cells: 293T CRBN OE/GSPT1 G575N KI cells, lentiviral transduction, puromycin selected
# Assay: IRAK3-ePL overexpressing degradation assay (InCELL Hunter luminescence, dose response)
# Type: cell-based
# Details: for IRAK3 ePL degradation Ymin: lowest percentage of target protein remaining following compound treatment; for DC50: read-out: IRAK3 ePL degradation EC50
# Outline: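 Lenti-X 293T CRBN/GSPT1 G575N cells stably expressing IRAK3-ePL (5,000/well) treated overnight at 37° C with 10-point 3-fold dilutions from 10 μM, 0.2% DMSO. InCELL Hunter luminescence, background subtracted using Ataluren wells and normalized to DMSO; EC50 from four-parameter logistic fit.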
Structure (SMILES),IRAK3 ePL degradation Ymin [%],DC50 [nM]
"Cc1cc(-c2cnc(Nc3cnn([C@H]4CCN(CCN5CCN(c6ccc(C7CCC(=O)NC7=O)cc6)C[C@H]5C)[C@@H](C)C4)c3)c3nccn23)c(F)cc1F (stereo partly drawn) [Compound 35, 3-(4-((R)-4-(2-((2S,4S)-4-(4-((5-(2,4-difluoro-5-methylphenyl)imdazo [1,2-a]pyrazin-8-yl)amino)-1H-pyrazol-1-yl)-2-methylpiperidin-1-yl)ethyl)-3-methylpiperazin-1-yl)phenyl) piperidine-2,6-dione]",24,0.63
"Cc1cc(-c2cnc(Nc3cnn([C@H]4CCN(CCN5CCN(c6ccc(C7CCC(=O)NC7=O)cc6)CC5)C[C@@H]4F)c3)c3nccn23)c(F)cc1F (stereo partly drawn) [Compound 72, 3-(4-(4-(2-((3S,4S)-4-(4-((5-(2,4-difluoro-5-methylphenyl)imdazo [1,2-a]pyrazin-8-yl)amino)-1H-pyrazol-1-yl)-3-fluoropiperidin-1-yl)ethyl)piperazin-1-yl)phenyl) piperidine-2,6-dione]",24,0.51
"O=C1CCC(c2ccc(N3CCN(CCN4CCC(n5cc(Nc6ncc(-c7ccc(F)cc7)n7ccnc67)cn5)CC4)CC3)cc2)C(=O)N1 (stereo not shown) [Compound 74, 3-(4-(4-(2-(4-(4-((5-(4-fluorophenyl)imidazo [1,2-a]pyrazin-8-yl)amino)-1H-pyrazol-1-yl)piperidin-1-yl)ethyl)piperazin-1-yl)phenyl) piperidine-2,6-dione]",26,1
"O=C1CCC(c2ccc(N3CCN(CCN4CCC(n5cc(Nc6ncc(-c7ccccc7F)n7ccnc67)cn5)CC4)CC3)cc2)C(=O)N1 (stereo not shown) [Compound 75, 3-(4-(4-(2-(4-(4-((5-(2-fluorophenyl)imidazo [1,2-a]pyrazin-8-yl)amino)-1H-pyrazol-1-yl)piperidin-1-yl)ethyl)piperazin-1-yl)phenyl) piperidine-2,6-dione]",25,4.1
"O=C1CCC(c2ccc(N3CCN(CCN4CCC(n5cc(Nc6ncc(-c7cccc(F)c7)n7ccnc67)cn5)CC4)CC3)cc2)C(=O)N1 (stereo not shown) [Compound 80, 3-(4-(4-(2-(4-(4-((5-(3-fluorophenyl)imidazo [1,2-a]pyrazin-8-yl)amino)-1H-pyrazol-1-yl)piperidin-1-yl)ethyl)piperazin-1-yl)phenyl) piperidine-2,6-dione]",28,26

# Continued, values first:
IRAK3 ePL degradation Ymin [%],DC50 [nM],Structure (SMILES)
78,–,"Cc1cc(-c2cnc(Nc3cnn(C4CCN(CCN5CCN(c6ccc([C@]7(C)CCC(=O)NC7=O)cc6)CC5)CC4)c3)c3nccn23)c(F)cc1F [Compound 76, (S)-3-(4-(4-(2-(4-(4-((5-(2,4-difluoro-5-methylphenyl)imdazo [1,2-a]pyrazin-8-yl)amino)-1H-pyrazol-1-yl)piperidin-1-yl)ethyl)piperazin-1-yl)phenyl)-3-methylpiperidine-2,6-dione]"
27,1.1,"Cc1cc(-c2cnc(Nc3cnn(C4CCN(CCN5CCN(c6ccc([C@@]7(C)CCC(=O)NC7=O)cc6)CC5)CC4)c3)c3nccn23)c(F)cc1F [Compound 77, (R)-3-(4-(4-(2-(4-(4-((5-(2,4-difluoro-5-methylphenyl)imdazo [1,2-a]pyrazin-8-yl)amino)-1H-pyrazol-1-yl)piperidin-1-yl)ethyl)piperazin-1-yl)phenyl)-3-methylpiperidine-2,6-dione]"
27,3.3,"Cc1cc(-c2cnc(Nc3cnn([C@H]4CC[C@H](CCN5CCN(c6ccc([C@@]7(C)CCC(=O)NC7=O)cc6)CC5)CC4)c3)c3nccn23)c(F)cc1F [Compound 81, (R)-3-(4-(4-(2-((trans)-4-(4-((5-(2,4-difluoro-5-methylphenyl)imidazo[1,2-a]pyrazin-8-yl)amino)-1H-pyrazol-1-yl)cyclohexyl)ethyl)piperazin-1-yl)phenyl)-3-methylpiperidine-2,6-dione]"
66,–,"Cc1cc(-c2cnc(Nc3cnn([C@H]4CC[C@H](CCN5CCN(c6ccc([C@]7(C)CCC(=O)NC7=O)cc6)CC5)CC4)c3)c3nccn23)c(F)cc1F [Compound 82, (S)-3-(4-(4-(2-((trans)-4-(4-((5-(2,4-difluoro-5-methylphenyl)imidazo[1,2-a]pyrazin-8-yl)amino)-1H-pyrazol-1-yl)cyclohexyl)ethyl)piperazin-1-yl)phenyl)-3-methylpiperidine-2,6-dione]"
